Assay results published in patent US20260166016A1, “GPR139 RECEPTOR AGONIST, PREPARATION METHOD THEREFOR, AND APPLICATION THEREOF” (NEUBO APPTECH CO., LTD., priority 2022, published 2026).

Legend:
acutely restrained mice = assay: Acute restraint mouse stress model, plasma corticosterone (ELISA); type: in vivo; settings: male C57BL/6J mice, gavage 1, 5, 25 mg/kg, 30 minutes after administration and 3 hours of acute restraint, dose-dependent, FIG. 1
Procedure: Mouse: Male C57BL/6J; 8 weeks old; Weight: 20-25 g; Quantity: 40 pieces
Group 1, acute restraint+placebo group, 10 mice; the mice were divided into 2 cages, 5 mice per cage. On the morning of the day of the experiment, the mice in this group were subjected to acute restraint, during which they were fasted and deprived of water.
Group 2, acute restraint+low-dose of compound NRB181 group (1 mg/kg), 10 mice; the mice were divided into 2 cages, 5 mice per cage. On the morning of the day of the experiment, the mice in this group were subjected to acute restraint, during which they were fasted and deprived of water.
Group 3, acute restraint+moderate-dose of compound NRB181 group (5 mg/kg), 10 mice; the mice were divided into 2 cages, 5 mice per cage. On the morning of the day of the experiment, the mice in this group were subjected to acute restraint, during which they were fasted and deprived of water.
Group 4, acute restraint+high-dose of compound NRB181 group (25 mg/kg), 10 mice; the mice were divided into 2 cages, 5 mice per cage. On the morning of the day of the experiment, the mice in this group were subjected to acute restraint, during which they were fasted and deprived of water.
18.3.1 On the day before the experiment, a placebo was prepared: 1 mL of 100% DMSO and 9 mL of formula x solution was added. […]

mice in Forced Swim Test = assay: Mouse Forced Swim Test; type: in vivo; settings: male CD1 (ICR) mice; i.p. 2.5 mg/mL solution at 0.1 mL/10 g; test 10 minutes after injection; FIG. 3
Procedure: Mouse strain: Male Crl: CD1 (ICR) mice; Weight: 35-40 g; Quantity: 16 pieces
Group 1, placebo group: 8 mice, 4 mice per cage;
Group 2, NRB181 group: 8 mice, 4 mice per cage.
20.3.1 Preparation of placebo before experiment: 10% DMSO+saline.
20.3.2 Preparation of compound NRB181 before experiment: 10 mg of NRB181 was weighed and added to 4 mL of placebo, mixed well.
20.3.4 On the morning of the experimental day, all mice were weighed and then evenly divided into each group based on their weight, with 8 mice per group, for a total of 16 mice.
20.3.5 The mice were transferred to the behavioral laboratory and allowed to adapt for 3 hours.
20.3.6 Drug injection: mice of Group 1 received intraperitoneal injection of placebo at a dose of 0.1 mL/10 g; after Forced Swim Test of the mice in Group 1, mice in Group 2 were intraperitoneally injected with compound NRB181 at a dose of 0.1 mL/10 g.
Mice of Group 1 underwent Forced Swim Test in sequence 10 minutes after injection. The mice were placed in a glass jar (diameter 10 cm, height 25 cm; water depth 15 cm, water temperature 23° C.) and swam for 6 minutes. The first 2 minutes were the adaptation period, and the last 4 minutes were the experimental period; The software records the immobility time, swimming time, and climbing time of mice within 4 minutes. […]

## C[C@H](NC(=O)CNC(=O)c1cc(Cl)ccn1)c1c(F)cccc1F [NRB181]
Acutely restrained mice
  expression level of corticosterone: significantly reduced
Mice in Forced Swim Test
  time of despair (immobility time) in Forced Swim Test: significantly reduce
